One series has as its system L1 promoter. To be noted: Terasaki, et al., PLoS One 2013; cited from earlier work.
Series [1] concerns differentiating osteoblasts. The series is described as follows: Mineralization assay (OsteoImage) in differentiating osteoblasts. It counts as cell-based, human. To be noted: 150 μM, after 21 days of differentiation, vs DMSO. How it is done:
Bone marrow-derived MSC (#C-12974, PromoCell GmbH, Heidelberg, Germany) were grown in 0.1% gelatin solution (#07903, StemCell)-coated plates until passage 4. Growth medium (#PT-3001, Lonza) was changed every 3 days. Osteogenic differentiation was induced by replacing growth medium with Osteogenic Differentiation Medium (#PT-3002, Lonza) on 70% confluent cells seeded on 1:50 Matrigel (#356237, Corning)-coated plates. Adipogenic differentiation was induced by three cycles of induction/maintenance Adipogenic Differentiation Medium (#PT-3004, Lonza) on post-confluent cells seeded on 1:50 MatMatrigel (#356237, Corning)-coated plates.
(§1) Cells were washed in PBS and fixed with 4% Paraformaldehyde for 15 minutes. Mineralization was assessed by using the OsteoImage Mineralization Assay (#LOPA503, Lonza) according to manufacturer's indication. Mineralization was quantitatively assayed with GloMax discover plate reader (Promega) with appropriate excitation (492)/emission (520) wavelengths.

Series [2] relates to human mesenchymal stem cells. Briefly: Cell cycle analysis (Propidium Iodide, FACS). It counts as cell-based. To be noted: 3TC vs DMSO; data not shown. How it is done:
2×105 MSCs were trypsinized for 5 min at 37° C., washed with PBS and 2% BSA, passed through a […] strainer (#352350, Corning) and then fixed at −20° C. for 30 min in 70% ethanol. After washing with PBS and 4% BSA, cells were resuspended in PBS and incubated 1 hour at 37° C. with RNAse. Cells were then washed and resuspended in 100 μl of Flow Cytometry Staining Buffer (R&D System, #FC001). 10 μl of 1 mg/ml Propidium iodide (PI) staining solution (#P3566) was added to the single cell solution, gently mixed, and incubated 5 min in the dark. Cell cycle analysis was performed on BD FACSCanto II Flow Cytometry System, using BD FACSDiva Software.

For series [3], the system named is Line 1 retrotransposition. As to conditions: Nishikawa et al. 2018; Banuelos-Sanchez et al. 2019; cited from earlier work.
Series [4] concerns OP patients derived MSC differentiating to osteoblasts. The series is described as follows: L1 RNA transfection of MSC from osteoporotic patients, bone matrix quantification. The series is classed as cell-based, human. The protocol:
as §1

The test system of series [5] is BAX, IFNa2, IFNb1, IFI44 expression in MSC.
Experimental: L1 RNA was transfected in differentiating osteoblasts at day 7 using Lipofectamine™ MessengerMAX™ (Invitrogen, USA, Cat. No. LMRNA003) with a modified protocol were a lower RNA amount (10 times less) than recommended was transfected. RFP mRNA (System Bioscience, USA, Cat. No. MR800A-1) was used as negative control.
Real time quantitative polymerase chain reaction (qPCR) was performed with 7900HT Fast Real Time PCR system (Applied Biosystems). Each sample was analyzed in triplicate and normalized with the endogenous control, Ribosomal Protein L13A (RPL13A) for osteogenesis and Tata Binding Protein (TBP) for adipogenesis, for cDNA input concentration. No template and no RT were included as negative controls. For each 15 μl reaction, 10 ng (1 ng for L1) of cDNA was mixed with 1 μM specific primers mix and 7.5 μl of Sybr Select Master mix (#4472908, Life Technologies). The reaction was incubated at 95° C. for 10 minutes, followed by 40 cycles of denaturation at 95° C. for 15 seconds, annealing at 60° C. for 30 seconds and elongation at 72° C. for 30 seconds. Ct values were calculated by 7900HT Fast Real Time PCR RQ manager software (Applied Biosystems) and then normalized as DCt between the gene of interest and the endogenous calibrator. […] In all primer pairs each primer matches a different exon. Amplicons length was 80-130 nucleotides.

Entries after “also recorded” stand apart in the source; their conditions may differ.

Consider `O=C(O)c1ccccc1Nc1cccc(C(F)(F)F)c1` [flufenamic acid], for which the L1 promoter activity result with L1 promoter was “induce L1 promoter activity”.

For `O=C(O)c1cc(-c2ccc(F)cc2F)ccc1O` [diflunisal], in the series with L1 promoter, the L1 promoter activity result was “induce L1 promoter activity”.

With `O=C1NC(=S)NC(=O)C1C(=O)Nc1ccccc1` [merbarone], the L1 promoter activity entry in the series with L1 promoter was “induce L1 promoter activity”.

As to `CC[C@]1(O)C[C@@H]2CN(CCc3c([nH]c4ccccc34)[C@@](C(=O)OC)(c3cc4c(cc3OC)N(C)[C@H]3[C@@](O)(C(=O)OC)[C@H](OC(C)=O)[C@]5(CC)C=CCN6CC[C@]43[C@@H]65)C2)C1` [vinblastine], the L1 promoter activity entry in the series with L1 promoter is recorded as “induce L1 promoter activity”.

For the molecule `Nc1ccn([C@@H]2CS[C@H](CO)O2)c(=O)n1` [Lamivudine 3TC, Lamivudine], the “mineral deposition (mineralization)” value was −69% in series [1] and −60% in series [1] (listed as 3TC). Further, the “cell cycle analysis and apoptotic cell number in sub-G1 peak” value in series [2] is recorded as “no significant differences”.

In the case of `c1ccc2c(c1)cc1ccc3cccc4ccc2c1c34` [benzo[a]pyrene], the L1 promoter activity result in the series with L1 promoter is “induce L1 promoter activity”.

On to `CC1=C(CC(=O)O)c2cc(F)ccc2/C1=C\c1ccc([S+](C)[O-])cc1` (centres unmarked) [sulindac], for which, in the series with L1 promoter, the L1 promoter activity result is “induce L1 promoter activity”.

On to `C=C1[C@@H](C)[C@H]2[C@H](Cc3ccccc3)NC(=O)[C@]23[C@H](OC(C)=O)/C=C/[C@@](C)(O)C(=O)[C@@H](C)C/C=C/[C@H]3[C@@H]1O` [cytochalasin D], for which the L1 promoter activity result in the series with L1 promoter was “induce L1 promoter activity”.

Regarding `NC(=O)c1ccccc1O` [salicylamide], the L1 promoter activity entry with L1 promoter is “induce L1 promoter activity”.

With `COc1cc(CNC(=O)CCCC/C=C/C(C)C)ccc1O` [Capsaicin], in series [3], the “Line 1 retrotransposition” value is reported as “inhibit Line 1 retrotansposition”.

Consider `CC[C@@]1(O)C(=O)OCc2c1cc1n(c2=O)Cc2cc3ccccc3nc2-1` [camptothecin], for which the L1 promoter activity result in the series with L1 promoter was “induce L1 promoter activity”.

Consider `Nc1nc(=O)n([C@@H]2CS[C@H](CO)O2)cc1F` [emtricitabine], for which the “Line 1 retrotransposition” value in series [3] is given as “inhibit Line 1 retrotansposition”.

With “L1 RNA: Cy5-conjugated synthetic full-length human L1 mRNA, in vitro transcribed, capped, 5-methyl-C, Pseudo-U substituted, polyadenylated (TriLink)”, the osteoblasts maturation entry in series [4] (in vitro differentiating MSC, all patients tested) was “greatly enhanced osteoblasts maturation”. For the same molecule, in series [4] (transfection at day 7 of osteogenesis, three days after transfection, 4 OP patients, vs random RNA), the “bone matrix production / mineralized matrix” value is listed as “restored bone matrix production; also recorded: fully rescued the production of mineralized matrix”. Also, the “induction of apoptosis and Interferon response genes” value in series [5] was “neither apoptosis nor Interferon response genes were induced”.

These data come from patent publication US20250290065A1, “METHODS FOR MODULATING HUMAN L1 RETROTRANSPOSONS RNA AND COMPOSITIONS FOR USE THEREIN” (King Abdullah University of Science and Technology, priority 2019, published 2025).
